Measurements taken from US20250152577A1, “Pharmaceutical Composition of Ethidium Bromide and Use in Treating Cancer” (RUIJIN HOSPITAL, SHANGHAI JIAOTONG UNIVERSITY SCHOOL OF …, priority 2022, published 2025).

Columns and labels:
Hela Cervical cancer = assay: Median lethal dosage (IC50) against tumor cell lines; assay type: cell-based; details: Homo sapiens; Hela cervical cancer tumor cells
MDA-231 Breast cancer = assay: as above; assay type: cell-based; details: Homo sapiens, MDA-MB-231; MDA-231 breast cancer tumor cells
RKO Colorectal cancer = assay: as above; assay type: cell-based; details: Homo sapiens; RKO colorectal cancer tumor cells
B16 Melanoma = assay: as above; assay type: cell-based; details: Mus musculus; B16 melanoma tumor cells
HepG2 Liver cancer = assay: as above; assay type: cell-based; details: Homo sapiens; HepG2 liver cancer tumor cells
Nalm-6 Leukemia = assay: as above; assay type: cell-based; details: Homo sapiens; Nalm-6 leukemia tumor cells
Reh Leukemia = assay: as above; assay type: cell-based; details: Reh leukemia tumor cells
[1] = system: pancreatic cancer cells Panc1; assay: Intraperitoneal injection of pancreatic cancer cells Panc1 in nude mice; assay type: in vivo; details: for tumor in the pancreas: start 3 days after cell injection
Protocol: To further verify whether ethidium bromide can inhibit tumor migration in vivo, we injected 2×10^6 pancreatic cancer cells Panc1 intraperitoneally into nude mice, which were then divided into 3 groups: control group, gavage, and intravenous injection administration. Mice in the gavage-administration group were started with gavage oral administration of 20 mg/Kg ethidium bromide per day by gavage 3 days after intraperitoneal injection of pancreatic cancer cells. Mice in the intravenous administration group were administered with 5 mg/Kg ethidium bromide per day intravenously (Tail-IV) 3 days after intraperitoneal injection of pancreatic cancer cells.
In order to further investigate the anti-tumor effect of ethidium bromide on nude mice with advanced tumorigenicity and to obtain its effect on the viability of nude mice, we intraperitoneally injected the nude mice with 2×10^6 pancreatic cancer cells Panc1, which were then divided into 3 groups, the control group (no-treatment group), the early-injection group (administered intravenously after 3 days) and the late-injection group (administered intravenously after 14 days). Mice in the early injection group were administered with 5 mg/Kg ethidium bromide intravenously per day for 3 weeks 3 days after intraperitoneal injection of pancreatic cancer cells (starting intravenous administration after 3 days for about 3 weeks). Mice in the late injection group were administered with 5 mg/Kg ethidium bromide intravenously per day for 3 weeks starting 2 weeks days after intraperitoneal injection of pancreatic cancer cells (starting intravenous administration after 14 days for about 3 weeks).
In addition, we utilize the most advanced nuclear magnetic spectrometer uMR 9.4T with a 30 cm aperture magnet jointly developed by our work unit and Shanghai United Imaging Healthcare Co., LTD, as well as our self-developed GC, GPA, and VTC42 coils specially designed for abdominal scanning, and an optional PET insert system to achieve the PET-MR imaging results of the temporal and spatial integrality. The development of pancreatic cancer was followed dynamically in the control and dosing groups following intraperitoneal injection of pancreatic cancer cells. Mice were injected intraperitoneally with 2×10^6 pancreatic cancer cells, Panc1, and left for 2 weeks after which a visible tumor mass can be detected in the abdominal cavity to begin intravenous administration of 5 mg/Kg ethidium bromide for 4 weeks. […] Moreover, the abdominal cavity of the control mice was filled with ascites by the late stage (where the arrows are shown), whereas there was none in the dosing group (FIGS. 13A and 13B). […] However, clearance was not achieved mostly as in the previous results and we analyzed that it might be due to the fact that the mice were kept in a non-SPF environment during the whole administration period of MRI, thus affecting the effect of the drug.

[2] = system: colorectal cancer cells RKO; assay: Intraperitoneal injection of colorectal cancer cells RKO in nude mice, intravenous administration; assay type: in vivo
Text: In order to further investigate whether ethidium bromide also has a better inhibitory effect on other types of tumors, we administered nude mice 2 weeks after the intraperitoneal injection of 2×10^6 colorectal cancer cells RKO, and then tested the anti-tumor effect of ethidium bromide after 4 weeks of intravenous administration, as described above.

[3] = system: pancreatic cancer cells Panel; assay: Ectopic lung metastasis after intravenous injection of pancreatic cancer cells in nude mice; assay type: in vivo; details: intravenous 5 mg/Kg per day, start about 3 weeks after cell injection, 4 weeks
Protocol: In addition, to further investigate the effect of ethidium bromide on ectopic tissue metastatic tumors, we injected 2×10^6 pancreatic cancer cells Panel intravenously into nude mice. After ectopic tissue metastasis, tumors formed primarily in the lungs. After approximately 3 weeks, intravenous administration of 5 mg/Kg ethidium bromide per day was started after the tumor had already grown in the lung tissue (FIG. 15A). The mice were sacrificed after 4 weeks of administration and the lungs were removed for test.

[4] = Toxicity of ethidium bromide: routine blood, liver and kidney functions; assay type: in vivo, nude mice; details: after 4 weeks of intravenous administration
Text: Finally, we also conducted a preliminary study on the toxicity of ethidium bromide by collecting whole blood and serum from the control and the dosing groups (administered intravenously for about 1 month) and tested their routine blood, and liver and kidney functions, respectively.

[5] = system: colorectal cancer cells RKO; assay: Intraperitoneal RKO in nude mice, intraperitoneal administration; assay type: in vivo; details: intraperitoneal 10 mg/Kg once daily until day 5
Protocol: In addition, we also tested for nude mice utilizing intraperitoneal administration, where 2×10^6 colorectal cancer cells, RKO, were first injected intraperitoneally in nude mice, and about 3 days later, we treated the nude mice using intraperitoneal administration (10 mg/Kg).

[6] = system: colorectal cancer cells RKO; assay: Subcutaneous RKO solid tumor in nude mice, gavage administration; assay type: in vivo; details: gavage 20 mg/Kg
Protocol: We also tested the anti-tumor activity of ethidium bromide against subcutaneous solid tumors. 2×10^6 colorectal cancer cells RKO were injected subcutaneously. About 1 week later, when solid tumors grew subcutaneously in nude mice, gavage administration (20 mg/Kg) was started. The size of the tumors was measured twice a week.

[7] = cited from earlier work
[8] = intravenous, start 2 weeks after cell injection, 4 weeks

CC[n+]1c(-c2ccccc2)c2cc(N)ccc2c2ccc(N)cc21 [ethidium bromide, Ethidium bromide]
IC50 (Hela Cervical cancer): 3.35 µM | IC50 (MDA-231 Breast cancer): 5.4 µM | IC50 (RKO Colorectal cancer): 1.43 µM | IC50 (B16 Melanoma): 11.2 µM | IC50 (HepG2 Liver cancer): 8.12 µM | IC50 (Nalm-6 Leukemia): 1.17 µM | IC50 (Reh Leukemia): 2.23 µM | weight of the pancreas ([1]; administration group, especially intravenous injection, vs control): significantly smaller than that of the control group | body weights ([1]; dosing group, intravenous 5 mg/Kg per day, 3 weeks): relatively stable | pancreatic cancer tumor (weight) vs control ([1]; dosing groups, intravenous 5 mg/Kg per day, 3 weeks): significantly smaller than that in the control group | nude mice with no tumor ([1]; early injection group: intravenous 5 mg/Kg per day from day 3, 3 weeks): More than 80% | tumor in the pancreas ([1]; gavage 20 mg/Kg per day): still had a small amount of tumor, but was significantly smaller than that in the control group | tumor in the pancreas ([1]; intravenous 5 mg/Kg per day): no tumor was found in the pancreas | growth of pancreatic cancer in the abdominal cavity (MRI) ([1]; intravenous 5 mg/Kg, start 2 weeks after cell injection, 4 weeks): significantly inhibited, or almost completely inhibited | body weight ([1]; intravenous injection compared with gavage): did not cause a significant decrease in body weight | blood hemoglobin ([1]; late dosing group, intravenous 5 mg/Kg per day, 3 weeks): remained relatively normal | tumors in the liver tissues vs control ([1]; late injection group): significantly reduced | nude mice with no tumor at all ([1]; late injection group: intravenous 5 mg/Kg per day from day 14, 3 weeks): about 45% | weights of liver and pancreatic tissues vs control ([1]; late-injected group): significantly smaller | liver and spleen weights vs control ([2]; intravenous, 4 weeks): no significant difference in liver and spleen weights | abdominal tumors vs control [2, 8]: significantly smaller than those in the control group | mice with tumors completely cleared [2, 8]: approximately 25% | body weight ([2]; later stage, dosing group): slight decrease in body weight | tumors in the lung tissues vs control [3]: significantly smaller than those in the control group | liver or kidney function vs control ([4]; serum): no significant difference in liver or kidney function | blood routine data (hemoglobin, platelets, leukocytes) ([4]; whole blood): very normal | deaths [5]: excessive deaths in nude mice | viability of nude mice [6]: contributed to improve the viability of nude mice | inhibitory effect on subcutaneous solid tumors ([6]; start about 1 week after cell injection): very unsatisfactory | DNA mutations and carcinogenesis in cells or organisms ([7]; National Toxicology Program, 1239-45-8): no evidence that ethidium bromide can induce DNA mutations and carcinogenesis | genetic mutations in cells ([7]; long-term treatment, Mutation Research, 174(1986) 175-178): do not create genetic mutations
